Data set [1] deals with HCT-116 colorectal carcinoma. Description: Colorectal carcinoma model HCT-116 in SCID mice, tumor growth delay. The class given is in vivo, Mouse (Mus musculus); male SCID. The settings on record: dosage of 60 mg/kg. An excerpt: (§1) Control groups received the vehicle alone.
The target of the next data set is T1, HO-2 (rat brain) (Rattus norvegicus, UniProt P23711).
T1 construct: brain microsomes were used as a source of HO-2; from tissue; host or cells: brain microsomal fraction of adult male Sprague-Dawley rats
T1 sequence (P23711 1-315): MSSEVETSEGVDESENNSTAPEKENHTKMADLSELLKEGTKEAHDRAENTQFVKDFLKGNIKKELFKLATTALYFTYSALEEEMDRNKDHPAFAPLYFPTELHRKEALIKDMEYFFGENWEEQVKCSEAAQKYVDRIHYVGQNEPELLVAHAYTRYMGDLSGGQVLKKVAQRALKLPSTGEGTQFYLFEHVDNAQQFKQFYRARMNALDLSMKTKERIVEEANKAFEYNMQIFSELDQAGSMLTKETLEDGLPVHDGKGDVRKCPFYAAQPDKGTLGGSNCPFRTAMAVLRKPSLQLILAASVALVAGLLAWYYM
The data set can be described thus: HO enzymatic activity, rat brain microsomal fraction (CO formation from methemalbumin). The class given is biochemical.

The target in another data set is T2, HO-1 (rat spleen) (Rattus norvegicus, UniProt P06762).
T2 construct: Spleen microsomes were used as a source of HO-1; from tissue; host or cells: spleen microsomal fraction of adult male Sprague-Dawley rats
T2 sequence (P06762 1-289): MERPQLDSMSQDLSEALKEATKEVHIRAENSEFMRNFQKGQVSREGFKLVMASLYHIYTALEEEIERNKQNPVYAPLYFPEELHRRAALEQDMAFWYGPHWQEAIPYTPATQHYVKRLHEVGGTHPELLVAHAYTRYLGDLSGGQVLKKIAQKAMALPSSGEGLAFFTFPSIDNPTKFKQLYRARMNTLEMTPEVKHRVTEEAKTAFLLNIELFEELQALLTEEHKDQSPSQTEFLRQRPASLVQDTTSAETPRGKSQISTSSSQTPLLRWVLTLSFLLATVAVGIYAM
Description: HO enzymatic activity, rat spleen microsomal fraction (CO formation from methemalbumin). The class given is biochemical.

The next data set deals with cultured rat astroglia. The conditions noted are these: cited from earlier work; for mitochondrial iron accumulation in astroglia transfected with human ho-1 gene: transient transfection.
Data set [2] has as its system B16-BL6 cells (mouse melanoma). Description: Metastatic B16-BL6 melanoma model, lung surface metastases. The class given is in vivo. The conditions noted are these: vehicle control: 101. How it is done:
B16-BL6 cells (mouse melanoma). B16-BL6 metastatic variant was derived from B16-F10. This cell variant was obtained from Dr. Linda D. Williams, Dept. of Cancer Biology, MD Anderson Cancer Center, Texas, USA. […] Cells were maintained at 37° C. in a humidified atmosphere (5% CO2, 95% air).
as §1

The subject of data set [3] is CD31-positive vessels in SKMEL-V+ tumors. Description: CD31 immunohistochemistry / microvessel density of SKMEL-V+ tumors. Format: in vivo, Mouse (Mus musculus), male SCID. The settings on record: QC-56 particularly at 60 mg/kg. As to the method: Cell cultures were maintained in 5% CO2/95% air at 37° C. SKMEL-V (human melanoma cells). SKMEL-V cells were derived from SKMEL-24 cells (ATCC) by overexpression of mouse VEGF. […] Tumors were either snap frozen in liquid nitrogen or fixed in 10% buffered formalin and embedded in paraffin. […] BD PharMingen, San Diego, Calif.). […] Sections were rehydrated in PBS and then blocked with 5% normal goat serum for 1 h. The sections were then incubated overnight at 4° C. with CD31 antibody diluted 1:25 in 3% BSA-PBS. […] Paraffin-embedded material was used for Harris' hematoxylin. Microvessel density was quantified using a method described by Weidner et al ([…], and Folkman […]. Med, 1991; 324:1-8). Briefly, randomly vascularized areas were selected (hot spots) under 40× field and 100× fields. Then a 400× field was used to count microvessels in each of these areas. Single endothelial cells or clusters of endothelial cells with or without lumen were considered to be individual vessels. […] All slides were examined blindly with no prior knowledge of the treatment status.

Data set [4] is classed as in vivo. The conditions noted are these: QC-56 60 mg/kg ip, 4 cycles; chemotherapy drugs ip.
Excerpt: as §1

Data set [5] relates to vascular smooth muscle cells (VSMC). The settings on record: exposure of VSMC; cited from earlier work.
Where [6] appears, read: IC50 HO-2 (rat brain)/μM), CO formation from methemalbumin, mean ± SD of replicate experiments.
Where [7] appears, read: CO formation from methemalbumin, mean ± SD of replicate experiments, read-out: IC50 HO-1 (rat spleen/μM).

SMILES strings stand for the structures. Structures can show the parent of a compound that is named as a salt. Where two headings read alike, the source gives them in different places. Some results are limits rather than exact numbers.

Compound `Cl.Clc1ccc(CC[C@@]2(Cn3ccnc3)OC[C@@H](CSc3ccc4ccccc4c3)O2)cc1` [QC-121, (2R,4S)-1-[2-[2-(4-Chlorophenyl)ethyl]-4-(naphthalen-2-ylsulfanylmethyl)-[1,3]dioxolan-2-ylmethyl]-1H-imidazole hydrochloride] returned a melting point of 156 to 157 °C.
Turning to `O=c1[nH]cc(F)c(=O)[nH]1` [5-FU, Fluorouracil, reference compound], the mortality entry in data set [1] was “induced mortality”.
In turn, `Cl.O=C(Cn1ccnc1)C12CC3CC(CC(C3)C1)C2` [QC-82, 1-(adamantan-1-yl)-2-imidazol-1-yl-ethanone hydrochloride] gave a melting point of 261 to 262 °C. The same compound displayed an IC50 at HO-2 (rat brain) (setting [6]) greater than 100 µM. On HO-1 (rat spleen) (setting [7]), the IC50 worked out at 3 ± 1 µM.
`Cl.OC(CCc1ccc(I)cc1)Cn1ccnc1` (racemic) [QC-74, (±)-1-(1H-Imidazol-1-yl)-4-(4-iodophenyl)-2-butanol hydrochloride] came in with a melting point of 196 to 197 °C. The compound further showed an IC50 on HO-2 (rat brain) (setting [6]) of 2 ± 1 µM.
In the case of `Cl.Ic1ccc(CCC2(Cn3ccnc3)OCCO2)cc1` [QC-78, 1-((2-(2-(4-Iodophenyl)ethyl)-1,3-dioxolan-2-yl)methyl)-1H-imidazole hydrochloride], the melting point was 241 to 243 °C (dec.). The IC50 against HO-1 (rat spleen) (IC50 HO-1 (rat spleen/μM), CO formation from methemalbumin, mean ± SD of replicate experiments) was 4 ± 1 µM.
On to `Cl.FC(F)(F)c1ccc(CCCCn2ccnc2)cc1`, for which the melting point was in the range of 110 to 111 °C.
Consider `Cl.Clc1ccc(CC[C@@]2(Cn3ccnc3)OC[C@@H](COc3ccc(-c4ccccc4)cc3)O2)cc1` [QC-129], for which the melting point lay in the range of 162 to 163 °C.
Take `C[C@@H]1C[C@H]2[C@@H]3CCC4=CC(=O)C=C[C@]4(C)[C@@]3(F)[C@@H](O)C[C@]2(C)[C@@]1(O)C(=O)CO` [dexamethasone]: in the data set on cultured rat astroglia (dexamethasone 50 μg/mL), the “mitochondrial iron sequestration in astrocytes exposed to β-amyloid, TNFα or IL-1β” value is listed as “significantly attenuated mitochondrial iron sequestration”. In addition, the “mitochondrial iron accumulation in astroglia transfected with human ho-1 gene” value in the data set with cultured rat astroglia is reported as “abolished the pathological accumulation of mitochondrial ^55Fe”.
Regarding `Cl.Clc1ccc(CCCCn2ccnc2)cc1` [QC-105, 1-[4-(4-chlorophenyl)butyl]-1H-imidazole hydrochloride], the melting point was in the range of 121 to 122 °C. Also, at HO-1 (rat spleen) (setting [7]), the IC50 is 0.5 ± 0.3 µM.
Regarding `Cl.OC(CCc1ccc(Br)cc1)Cn1ccnc1` (racemic) [QC-79, (±)-4-(4-Bromophenyl)-1-(1H-imidazol-1-yl)-2-butanol hydrochloride], the melting point was 174 to 175 °C. The compound further returned an IC50 at HO-2 (rat brain) (setting [6]) of 2.6 ± 0.5 µM. The IC50 at HO-1 (rat spleen) (setting [7]) amounted to 0.1 ± 0.1 µM.
The like results for `Cl.OC(CCc1ccccc1)Cn1ccnc1` (racemic) [QC-76, (±)-1-(1H-imidazol-1-yl)-4-phenyl-2-butanol hydrochloride] were, in that order, 56 to 57 °C, 16 ± 8 µM and 6 ± 1 µM.
Regarding `N.N.[Cl][Pt][Cl]` [cisplatin, cis-diaminedichloroplatinum(II), reference compound], the “macroscopic nodules in the lungs (average)” value in data set [2] is recorded as 60 nodules.
In turn, `COc1ccc(OCC2CO[C@@](CCc3ccc(Cl)cc3)(Cn3ccnc3)O2)cc1.Cl` (stereo in doubt) [QC-132, (2R,4S)-1-[2-[2-(4-Chlorophenyl)ethyl]-4-(4-methoxyphenoxymethyl)-[1,3]dioxolan-2-ylmethyl]-1H-imidazole hydrochloride] came in with a melting point of 128 to 129 °C.
Take `CN(C)/N=N/c1[nH]cnc1C(N)=O` [Dacarbazine, reference compound]: the “vessel count / tumor vascularization (CD31)” value in data set [3] was “minor effect”.
For the compound `CCC1=C(C)c2cc3[n-]c(cc4[n-]c(cc5nc(cc1n2)C(C)=C5CC)c(C)c4CCC(=O)O)c(CCC(=O)O)c3C.[Cl-].[Cl-].[Sn+4]` [SnMP], the “mitochondrial iron accumulation in astroglia transfected with human ho-1 gene” value with cultured rat astroglia is “abolished the pathological accumulation of mitochondrial ^55Fe”.
Take `NCCc1c[nH]cn1` [QC-67, Histamine dihydrochloride, reference compound]: the IC50 on HO-2 (rat brain) (CO formation from methemalbumin, mean ± SD of replicate experiments, read-out: IC50 HO-2 (rat brain)/μM)) is greater than 100 µM; at HO-1 (rat spleen) (setting [7]), greater than 100 µM.
Take `CC(=O)O[C@H]1C(=O)[C@@]2(C)[C@H]([C@H](OC(=O)c3ccccc3)[C@]3(O)C[C@H](OC(=O)[C@H](O)[C@@H](NC(=O)c4ccccc4)c4ccccc4)C(C)=C1C3(C)C)[C@]1(OC(C)=O)CO[C@@H]1C[C@@H]2O` [Taxol™, paclitaxel, reference compound]: the “toxicity in the combination study” value in data set [4] was “induced some loss of body weights/mortality”. The “HO-1 expression and activity” value in [5] is “dose and time dependent increase in HO-1 expression and activity”.
In the case of `N#CSC[C@@H]1CO[C@@](CCc2ccc(Cl)cc2)(Cn2ccnc2)O1` [QC-197, 1-{2-[2-(4-Chloro-phenyl)-ethyl]-4-thiocyanatomethyl-[1,3]dioxolan-2-ylmethyl}-1H-imidazole hydrochloride], the IC50 on HO-2 (rat brain) (IC50 HO-2 (rat brain)/μM), average ± SD of replicate experiments) was greater than 100 µM; at HO-1 (rat spleen) (IC50 HO-1 (rat spleen/μM), average ± SD of replicate experiments) it was 3 ± 0.9 µM.

These data come from patent US20120020915A1, “Compounds and Methods for Treating Cancer and Diseases of the Central Nervous System” (QUEENS UNIVERSITY AT KINGSTON, priority 2007, published 2012).
